ChEMBL document CHEMBL5096239, “Two Binding Sites of SARS-CoV-2 Macrodomain 3 Probed by Oxaprozin and Meclomen” (J Med Chem, 2022)
pKd: −log10 of the molar value.

How the values were obtained:
[1] = Binding affinity to 15N-labelled His6-tagged SARS-CoV-2 Mac3 (551 to 675 residues) V635I mutant expressed in Escherichia coli Rosetta by NMR HSQC spectral analysis; parameters: species or system Severe acute respiratory syndrome coronavirus 2
[2] = Binding affinity to 15N-labelled MTSL-tagged SARS-CoV-2 Mac3 (551 to 675 residues) T583C mutant expressed in Escherichia coli Rosetta by transferred PRE analysis; parameters: species or system Severe acute respiratory syndrome coronavirus 2

Q: With `Cc1ccc(Cl)c(Nc2ccccc2C(=O)O)c1Cl` [MECLOFENAMIC ACID] as the molecule, how does the pKd [1] read?
A: 3.52

Q: And the pKd [2]?
A: 3.15
